# Measured values published in US20240238214A1, “NANOCONSTRUCTS AND NANOPARTICLE-MEDIATED DELIVERY OF IMMUNOGENIC CELL DEATH INDUCERS FOR ENHANCING CANCER IMMUNOTHERAPY” (Purdue Research Foundation, priority 2021, published 2024).
# Columns and labels:
# [1] = test system: CT26 murine carcinoma, B16F10 murine carcinoma and 4T1 breast mammary carcinoma cells; experiment: ATP secretion into medium (ATP determination kit); type: cell-based; details: treated at IC50 for 24 hours; supernatant
# Experimental: (§1) The release of DAMPs from the treated cells were then analyzed (e.g., CRT exposure was measured by flow cytometry, HMGB1 was measured by quantifying western blot, and ATP was measured by ATP determination kit).
# After 24 hours, supernatants were collected, and the amount of ATP in the supernatant was measured with ATP determination kit.
# [2] = test system: CT26 cells phagocytosed by JAWSII DCs; experiment: Phagocytosis assay; type: cell-based, murine; details: CT26 treated with IC50 of drug, co-cultured with JAWSII for 24 hours
# Experimental: A phagocytosis assay was performed to observe whether cells killed by ICD inducers will be taken up by dendritic cells (DCs).
# CT26 cells were stained with Cell Tracker Green for 30 mins (0.5 μM) and washed once with cold serum free DMEM. CT26 cells were incubated overnight in 10% FBS media to allow any unbound dye to be inactivated. CT26 cells were collected and seeded (150,000 cells/well) in 6 wells plate for 24 hours. JAWSII cells were collected and stained with Cell Tracker Deep Red for 30 mins (0.5 μM) and washed once with cold serum free RPMI. JAWSII cells were incubated overnight in 10% FBS media to allow any unbound dye to be inactivated. […] After the treatment, CT26 containing 6 wells plate was centrifuged at 500 g×8 mins. Supernatant was aspirated to remove any remaining drugs. JAWSII cells (150,000 cells/well) were added to CT26, and cells were co-cultured for 24 hours. The co-cultured cells were collected, resuspended in the staining buffer, and analyzed by the Accuri C6 flow cytometer.
# physchem = details: aqueous with cosolvent or surfactant or cyclodextrin
# CT26 cells = experiment: In vivo tumor vaccination study; parameters: species or system Balb/c mice; details: cells treated at 100× IC50 for 24 hours; three million dead cells; 500,000 live CT26 cells after 9 days
# Experimental: The vaccination study, a standard test to verify bona fide ICD, was performed with PTX and CFZ (e.g., the candidate drugs) in vivo. The vaccination study involved generating tumor antigens by exposing tumor cells to lethal dose of ICD inducers. Potential ICD inducer-treated cells (i.e., the primary dose) were injected subcutaneously to immunocompetent mice. One week later, live tumor cells were injected on the contralateral side (i.e., the rechallenge), and the growth of the tumor was monitored to determine if the drug-killed tumor cells (i.e., the primary dose) can serve as a vaccine and prevent the growth of a live cell challenge.
# Dead cells were collected and washed with PBS twice to remove excess amount of the drug.
# Three million dead cells were injected into the right flanks of 6-week-old immunocompetent female Balb/c mice (i.e., the primary dose), the syngeneic host of CT26 cells. After 9 days, 500,000 live CT26 cells (live tumor cells) were inoculated subcutaneously in the contralateral side of the mice (i.e., the rechallenge) and tumor growth was monitored to determine the development of anti-tumor immunity.
# [3] = test system: CT26 murine carcinoma, B16F10 murine carcinoma and 4T1 breast mammary carcinoma cells; experiment: CRT exposure on cell surface (flow cytometry); type: cell-based; details: treated at IC50 for 6 hours; compared to control groups
# Experimental: as §1
# After 6 hours, cells were washed with PBS and fixed with 4% […] (PFA). Fixed cells were incubated with FITC-labeled CRT antibodies. Cells were analyzed by the Accuri C6 flow cytometer to determine the population of CRT-positive cells.
# [4] = cited from earlier work
# CT26 murine carcinoma = experiment: Cytotoxicity by MTT assay, CT26; type: cell-based; details: Mus musculus; CT26 cells
# Experimental: (§2) As the nanoparticles hereof can be used to deliver ICD inducers to create tumor antigens, which need to be taken up by APCs, in certain embodiments, it is important for the formulations to kill tumor cells, while saving the host immune cells.
# Cytotoxicity was assessed by the MTT assay. CT26 cells were seeded in 96 wells with 3,000 cells/well and cultured until 30% confluency. Cells were treated with varying concentrations of Drug, Drug@NP, Drug@NP-pD, Drug@NP-pD-ATP for 24 hours. After 24 hours, media was replaced, the cells were incubated for an additional 24 hours, and an MTT assay was performed to measure the number of viable cells present (see FIGS. 13A and 14A).
# [5] = test system: CT26 murine carcinoma, B16F10 murine carcinoma and 4T1 breast mammary carcinoma cells; experiment: HMGB1 release into medium (western blot); type: cell-based; details: treated at IC50 for 24 hours; supernatant
# Experimental: After 24 hours, supernatants were collected, and a western blot immunoassay was performed to determine the amount of HMGB1 present.
# JAWSII DCs = experiment: Cytotoxicity by MTT assay, JAWSII; type: cell-based, murine; details: 96 hours
# Experimental: as §2
# For JAWSII cells, JAWSII cells were seeded in 96 wells with 20,000 cells/well.
# JAWSII cells = experiment: Stability against apyrase (DC migration assay in Transwell); type: cell-based, murine; details: 10 μM ATP, 0.5 units of apyrase, 4 hours
# Experimental: To screen the effect of degrading enzyme to the nanoparticle-bound ATP, apyrase (a CD39 equivalent) was co-incubated with ATP or NP-pD-ATP, and a DC migration assay was performed in a Transwell (FIG. 9A). For the migration assay, 100 μL of 2×10^5 JAWSII cells, suspended in media, were added to the top of the Transwell (8 μm pore size). 600 μL of media containing 10 μM ATP conjugated nanoparticle was added to the bottom well (with or without 0.5 units of apyrase). Cells were incubated in 37° C. for 4 hours. Bottom media was collected to analyze the number of cells migrated by flow cytometry.
# apyrase = target: T1, apyrase (Solanum tuberosum, UniProt P80595); experiment: ATP level after incubation with apyrase (ATP bioluminescence assay); type: biochemical; details: 10 μM ATP, 5 units/mL apyrase, 37° C., 10 minutes
# T1 construct: purchased Thermo Fisher Scientific Inc. (Waltham, MA)
# T1 sequence (P80595 1-454): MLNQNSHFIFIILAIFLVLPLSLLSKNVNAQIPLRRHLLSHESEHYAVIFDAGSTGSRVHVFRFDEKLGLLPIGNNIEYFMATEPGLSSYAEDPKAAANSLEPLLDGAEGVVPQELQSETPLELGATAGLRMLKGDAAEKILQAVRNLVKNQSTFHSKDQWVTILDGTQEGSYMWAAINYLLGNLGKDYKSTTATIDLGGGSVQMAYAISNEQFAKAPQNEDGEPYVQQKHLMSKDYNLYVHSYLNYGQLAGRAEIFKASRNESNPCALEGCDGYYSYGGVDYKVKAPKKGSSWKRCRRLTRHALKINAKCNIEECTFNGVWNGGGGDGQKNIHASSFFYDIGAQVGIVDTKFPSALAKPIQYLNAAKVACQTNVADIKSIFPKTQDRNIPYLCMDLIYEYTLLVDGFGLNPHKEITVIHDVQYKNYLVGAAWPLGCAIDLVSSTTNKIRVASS
# Experimental: Further, to confirm the activity of apyrase against ATP, 10 μM ATP was incubated with or without 5 units/mL apyrase in 37° C. for 10 minutes. The ATP level after incubation was measured by ATP bioluminescence assay.
SMILES,ATP secretion [1],uptake of CT26 to the dendritic cells [2],solubility (physchem),tumor growth after live CT26 rechallenge in mice vaccinated with drug-treated dead cells (CT26 cells),CRT exposure [3],water solubility [4],IC50 (CT26 murine carcinoma),HMGB1 release [5],concentration with sudden decrease of DC viability (JAWSII DCs),chemotactic ability (DC migration) in the presence of apyrase (JAWSII cells),ATP level after incubation with apyrase (apyrase)
"CC(C)C[C@H](NC(=O)[C@H](CCc1ccccc1)NC(=O)CN1CCOCC1)C(=O)N[C@@H](Cc1ccccc1)C(=O)N[C@@H](CC(C)C)C(=O)[C@@]1(C)CO1 [CFZ, carfilzomib]",caused the secretion of ATP,significantly increased the uptake of CT26 to the dendritic cells,9 µg/mL,tumors did not grow,induced the exposure of CRT,0.7 to 3.6 µg/mL,0.015 µM,induced the release of HMGB1,,,
"Nc1ccn([C@@H]2O[C@H](CO)[C@@H](O)C2(F)F)c(=O)n1 [GEM, gemcitabine]",,,,Tumors grew in all animals,failed to induce CRT exposure,,,failed to induce HMGB1 secretion,,,
"O=C1[O][Pt]2([NH][C@@H]3CCCC[C@H]3[NH]2)[O]C1=O [OXA, oxaliplatin]",,,,tumors did not grow,,,,induced the release of HMGB1,,,
"CC(=O)O[C@H]1C(=O)[C@@]2(C)[C@H]([C@H](OC(=O)c3ccccc3)[C@]3(O)C[C@H](OC(=O)[C@H](O)[C@@H](NC(=O)c4ccccc4)c4ccccc4)C(C)=C1C3(C)C)[C@]1(OC(C)=O)CO[C@@H]1C[C@@H]2O [PTX, paclitaxel]",caused the secretion of ATP,significantly increased the uptake of CT26 to the dendritic cells,,tumors did not grow,induced the exposure of CRT,,0.25 µM,induced the release of HMGB1,≥ 30 µM,,
"Nc1ncnc2c1ncn2[C@@H]1O[C@H](COP(=O)(O)OP(=O)(O)OP(=O)(O)O)[C@@H](O)[C@H]1O [free ATP, adenosine triphosphate]",,,,,,,,,,completely abolished the chemotactic ability of free ATP,not detectable
